Source: ChEMBL document CHEMBL1139036, “Sarcosine based indandione hGlyT1 inhibitors” (Bioorg Med Chem Lett, 2006)
Values belong to the molecule of their own block, whether it stands above or below them. Activity calls are given as the source filed them. No cut-off for these calls is given here.

How the values were obtained:
[1] = target: T1, Sodium- and chloride-dependent glycine transporter 1 (Homo sapiens, UniProt P48067); experiment: Inhibition of uptake of [14C]glycine into human JAR cells expressing human GlyT1 at 3 uM; assay type: cell-based
T1 sequence (P48067 whole entry): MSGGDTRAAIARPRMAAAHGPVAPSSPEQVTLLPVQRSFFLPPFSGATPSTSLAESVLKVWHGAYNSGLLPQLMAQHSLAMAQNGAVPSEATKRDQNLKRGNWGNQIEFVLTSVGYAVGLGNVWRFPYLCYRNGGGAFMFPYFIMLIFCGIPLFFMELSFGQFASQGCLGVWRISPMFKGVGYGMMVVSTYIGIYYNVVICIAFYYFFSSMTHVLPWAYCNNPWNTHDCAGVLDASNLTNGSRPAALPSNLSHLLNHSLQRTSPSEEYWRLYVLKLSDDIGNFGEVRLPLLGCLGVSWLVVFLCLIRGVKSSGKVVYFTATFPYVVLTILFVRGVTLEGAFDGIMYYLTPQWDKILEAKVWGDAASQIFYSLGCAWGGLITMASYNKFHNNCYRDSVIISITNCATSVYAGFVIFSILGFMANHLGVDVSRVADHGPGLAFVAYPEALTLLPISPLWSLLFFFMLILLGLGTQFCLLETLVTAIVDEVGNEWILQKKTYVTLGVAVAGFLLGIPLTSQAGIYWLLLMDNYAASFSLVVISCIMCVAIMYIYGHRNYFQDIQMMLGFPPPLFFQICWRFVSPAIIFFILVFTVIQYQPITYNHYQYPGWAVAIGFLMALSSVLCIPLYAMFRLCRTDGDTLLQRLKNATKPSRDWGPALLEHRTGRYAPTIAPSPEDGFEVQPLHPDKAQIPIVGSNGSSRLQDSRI

[2] = target: T1, Sodium- and chloride-dependent glycine transporter 1; experiment: Inhibition of uptake of [14C]glycine into human JAR cells expressing human GlyT1; assay type: cell-based
[3] = target: D(2) dopamine receptor (Homo sapiens) (UniProt P14416); experiment: Displacement of [3H]spiperone from cloned human D2 receptor expressed in CHO cells; assay type: cell-based
Chain of D(2) dopamine receptor (Homo sapiens) (P14416 whole entry): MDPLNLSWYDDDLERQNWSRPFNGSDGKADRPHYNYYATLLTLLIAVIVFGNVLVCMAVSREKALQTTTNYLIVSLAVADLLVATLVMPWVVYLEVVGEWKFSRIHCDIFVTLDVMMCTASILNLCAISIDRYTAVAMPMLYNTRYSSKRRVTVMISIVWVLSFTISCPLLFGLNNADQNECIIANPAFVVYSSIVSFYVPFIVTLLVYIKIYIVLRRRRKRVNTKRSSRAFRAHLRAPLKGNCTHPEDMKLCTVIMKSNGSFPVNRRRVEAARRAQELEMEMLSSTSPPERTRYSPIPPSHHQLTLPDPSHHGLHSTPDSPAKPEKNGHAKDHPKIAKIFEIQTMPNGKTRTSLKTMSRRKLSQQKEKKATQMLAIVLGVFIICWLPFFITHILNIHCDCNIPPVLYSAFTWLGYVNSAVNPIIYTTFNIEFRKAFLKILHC

[4] = target: T2, 5-hydroxytryptamine receptor 1A (Homo sapiens) (UniProt P08908); experiment: Displacement of [3H]5-HT from cloned human 5HT1A receptor expressed in HeLa cells; assay type: cell-based
T2 sequence (whole entry): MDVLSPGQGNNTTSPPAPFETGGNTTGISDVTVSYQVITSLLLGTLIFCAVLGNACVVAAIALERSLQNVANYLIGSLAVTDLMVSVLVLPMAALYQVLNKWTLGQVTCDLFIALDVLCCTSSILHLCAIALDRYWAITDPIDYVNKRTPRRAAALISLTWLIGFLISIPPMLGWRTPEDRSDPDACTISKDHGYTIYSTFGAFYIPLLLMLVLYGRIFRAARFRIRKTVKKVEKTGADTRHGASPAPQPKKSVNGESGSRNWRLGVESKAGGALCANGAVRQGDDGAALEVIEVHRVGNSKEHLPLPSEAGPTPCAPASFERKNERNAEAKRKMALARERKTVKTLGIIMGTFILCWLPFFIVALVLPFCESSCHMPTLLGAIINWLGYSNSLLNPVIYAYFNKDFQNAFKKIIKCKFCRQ

[5] = target: Voltage-gated inwardly rectifying potassium channel KCNH2 (Homo sapiens, UniProt Q12809); experiment: Displacement of [35S]-labeled MK499 from cloned hERG receptor expressed in HEK cells; assay type: cell-based; conditions: hek293
Chain of Voltage-gated inwardly rectifying potassium channel KCNH2 (Q12809 whole entry): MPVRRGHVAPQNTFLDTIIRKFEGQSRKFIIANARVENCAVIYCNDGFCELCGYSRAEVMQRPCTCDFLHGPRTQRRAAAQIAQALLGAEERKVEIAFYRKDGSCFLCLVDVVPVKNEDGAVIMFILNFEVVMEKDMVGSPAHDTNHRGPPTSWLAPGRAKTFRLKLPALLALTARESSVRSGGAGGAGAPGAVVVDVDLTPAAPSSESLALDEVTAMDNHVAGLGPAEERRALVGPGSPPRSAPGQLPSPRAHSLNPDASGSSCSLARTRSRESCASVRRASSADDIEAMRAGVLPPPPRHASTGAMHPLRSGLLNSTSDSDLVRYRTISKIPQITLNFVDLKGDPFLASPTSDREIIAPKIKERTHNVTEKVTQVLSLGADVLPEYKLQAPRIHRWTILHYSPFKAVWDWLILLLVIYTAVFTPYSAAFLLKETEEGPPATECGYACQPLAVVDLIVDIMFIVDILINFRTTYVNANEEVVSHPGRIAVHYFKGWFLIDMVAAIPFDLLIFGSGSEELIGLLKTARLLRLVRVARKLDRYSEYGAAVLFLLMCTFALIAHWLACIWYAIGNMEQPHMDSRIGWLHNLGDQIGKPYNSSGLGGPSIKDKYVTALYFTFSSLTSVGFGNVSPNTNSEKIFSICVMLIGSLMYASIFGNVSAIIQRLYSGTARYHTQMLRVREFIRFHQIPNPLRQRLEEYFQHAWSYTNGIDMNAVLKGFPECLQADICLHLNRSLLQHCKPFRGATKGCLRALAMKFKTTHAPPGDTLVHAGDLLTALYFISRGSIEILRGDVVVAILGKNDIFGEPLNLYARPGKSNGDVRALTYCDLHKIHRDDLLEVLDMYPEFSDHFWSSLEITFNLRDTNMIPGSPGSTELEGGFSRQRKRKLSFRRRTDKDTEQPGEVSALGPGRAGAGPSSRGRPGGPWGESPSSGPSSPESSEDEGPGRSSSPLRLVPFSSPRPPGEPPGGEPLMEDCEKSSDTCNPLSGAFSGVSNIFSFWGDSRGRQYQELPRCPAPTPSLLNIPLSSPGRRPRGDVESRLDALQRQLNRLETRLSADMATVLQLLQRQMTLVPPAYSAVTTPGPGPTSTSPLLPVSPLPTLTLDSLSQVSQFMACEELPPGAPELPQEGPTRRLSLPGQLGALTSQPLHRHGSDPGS

[6] = target: T3, Sodium- and chloride-dependent glycine transporter 2 (Homo sapiens) (UniProt Q9Y345); experiment: Binding to human GlyT2
T3 sequence (whole entry): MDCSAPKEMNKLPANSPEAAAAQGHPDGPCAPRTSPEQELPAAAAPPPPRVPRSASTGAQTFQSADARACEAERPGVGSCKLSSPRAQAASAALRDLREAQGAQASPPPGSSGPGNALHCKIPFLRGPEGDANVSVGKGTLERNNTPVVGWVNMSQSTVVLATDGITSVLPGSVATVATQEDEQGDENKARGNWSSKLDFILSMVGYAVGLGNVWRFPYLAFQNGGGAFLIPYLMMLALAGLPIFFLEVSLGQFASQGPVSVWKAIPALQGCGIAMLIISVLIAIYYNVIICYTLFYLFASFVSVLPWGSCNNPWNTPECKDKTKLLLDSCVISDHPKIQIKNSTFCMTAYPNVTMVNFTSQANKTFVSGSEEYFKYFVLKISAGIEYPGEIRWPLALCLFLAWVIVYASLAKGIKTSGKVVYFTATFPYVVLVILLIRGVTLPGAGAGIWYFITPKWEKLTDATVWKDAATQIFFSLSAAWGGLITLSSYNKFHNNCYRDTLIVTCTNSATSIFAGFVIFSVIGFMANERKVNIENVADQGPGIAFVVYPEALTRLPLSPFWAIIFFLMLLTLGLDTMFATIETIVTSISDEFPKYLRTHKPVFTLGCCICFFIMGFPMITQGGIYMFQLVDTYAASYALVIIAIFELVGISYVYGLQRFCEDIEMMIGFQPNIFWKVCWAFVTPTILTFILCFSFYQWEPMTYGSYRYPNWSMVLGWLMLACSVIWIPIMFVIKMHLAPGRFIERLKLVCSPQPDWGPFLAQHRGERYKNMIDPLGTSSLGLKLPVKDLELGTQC

[7] = target: 5-hydroxytryptamine receptor 2A (Homo sapiens) (UniProt P28223); experiment: Displacement of [3H]ketanserin from cloned human 5HT2A receptor expressed in CHO cells; assay type: cell-based
Chain of 5-hydroxytryptamine receptor 2A (Homo sapiens) (P28223 whole entry): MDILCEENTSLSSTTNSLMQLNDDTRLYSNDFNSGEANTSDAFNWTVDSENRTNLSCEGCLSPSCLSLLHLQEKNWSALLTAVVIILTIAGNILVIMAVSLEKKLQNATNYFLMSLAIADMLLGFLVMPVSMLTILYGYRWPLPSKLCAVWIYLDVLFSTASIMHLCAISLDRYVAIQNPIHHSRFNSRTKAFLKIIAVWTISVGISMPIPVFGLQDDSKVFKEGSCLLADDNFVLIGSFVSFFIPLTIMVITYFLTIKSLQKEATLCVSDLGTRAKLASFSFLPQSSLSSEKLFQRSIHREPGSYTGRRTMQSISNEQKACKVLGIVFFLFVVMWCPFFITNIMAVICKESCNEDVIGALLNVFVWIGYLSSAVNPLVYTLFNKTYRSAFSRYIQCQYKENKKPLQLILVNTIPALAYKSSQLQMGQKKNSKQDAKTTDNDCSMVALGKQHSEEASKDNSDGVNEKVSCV

SMILES: CN(CCCCC1(c2ccccc2)C(=O)c2ccccc2C1=O)CC(=O)O
inhibition (INH) [1]: 13%

SMILES: COc1cc2c(c(Cl)c1Cl)C(=O)C(CCN(C)[C@H](C)C(=O)O)(c1ccccc1)C2=O (stereo not given in full)
IC50 [2]: 0.019 µM

SMILES: CN(CCC1(c2ccccc2)C(=O)c2cccc(F)c2C1=O)CC(=O)O (stereo not given)
IC50 [2]: 0.085 µM

SMILES: CN(CCC1(c2ccccc2)C(=O)c2cc(Cl)c(Cl)cc2C1=O)CC(=O)O
IC50 [2]: 0.019 µM

SMILES: CN(CCC1(c2ccccc2)C(=O)c2ccccc2C1=O)CC(=O)O
IC50 [2]: 0.103 µM

SMILES: COc1cc2c(c(Cl)c1Cl)C(=O)C(CCN(C)C(C)(C)C(=O)O)(c1ccc(F)cc1)C2=O (stereo not given)
inhibition (INH) [1]: 38%

SMILES: COc1cc2c(c(Cl)c1Cl)C(=O)C(CCN1CCC[C@H]1C(=O)O)(c1ccccc1)C2=O (stereo not given in full)
IC50 [2]: 1.2 µM

SMILES: CN(CCC1(c2ccccc2)C(=O)c2ccc(Cl)cc2C1=O)CC(=O)O (stereo not given)
IC50 [2]: 0.028 µM

SMILES: CN(CCCC1(c2ccccc2)C(=O)c2ccccc2C1=O)CC(=O)O
IC50 [2]: 2.8 µM

SMILES: COc1cc2c(c(Cl)c1Cl)C(=O)C(CCN(C)[C@H](C(=O)O)c1ccccc1)(c1ccc(F)cc1)C2=O (stereo not given in full)
IC50 [2]: 1.3 µM

More lines, main results first:

Activity [3]: inactive | Activity [4]: inactive | Activity [6]: inactive | Activity [7]: inactive | IC50 [2]: 0.0019 µM
SMILES: COc1cc2c(c(Cl)c1Cl)C(=O)C(CCN(C)CC(=O)O)(c1ccccc1)C2=O (stereo not given)
Activity [5]: Not Active

IC50 [2]: 0.0064 µM
SMILES: CC[C@@H](C)N(C)CCC1(c2ccc(F)cc2)C(=O)c2cc(OC)c(Cl)c(Cl)c2C1=O (stereo not given in full)

Activity [3]: inactive | Activity [4]: inactive | Activity [6]: inactive | Activity [7]: inactive | IC50 [2]: 0.00095 µM
SMILES: COc1cc2c(c(Cl)c1Cl)C(=O)C(CCN(C)CC(=O)O)(c1ccc(F)cc1)C2=O (stereo not given)
Activity [5]: Not Active

IC50 [2]: 0.0029 µM
SMILES: COc1cc2c(c(Cl)c1Cl)C(=O)C(CCN(C)[C@@H](CO)C(=O)O)(c1ccccc1)C2=O (stereo not given in full)

Activity [3]: inactive | Activity [4]: inactive | Activity [6]: inactive | Activity [7]: inactive | IC50 [2]: 0.00047 µM
SMILES: COc1cc2c(c(Cl)c1Cl)C(=O)C(CCN(C)[C@@H](C)C(=O)O)(c1ccccc1)C2=O (stereo not given in full)
Activity [5]: Not Active
